Measurements as given in patent publication US9227971B2, “Pyrazolo[1,5-a]pyrimidine compounds as mTOR inhibitors” (Merck Sharp & Dohme Corp., priority 2010, dated 2016).

Assays:
[1] = test system: phosphorylated AKT Ser473 (pAKT S473), mTORC2 activity, PC3 cells; experiment: mTOR target engagement assay, immunofluorescent cell-based, pAKT S473 readout (mTORC2 activity); details: Homo sapiens, PC-3, PC3 cells, compound treatment ninety minutes at 37° C.
Summary of the method: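 After blocking, cells were stained overnight at 4 °C with anti-pAKT S473 antibody, then a fluorescent secondary; inhibition was read as reduced fluorescence intensity.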

[2] = test system: phosphorylated 4E-BP1 Thr37/46 (p4E-BP1 Thr37/46), mTORC1 activity, PC3 cells; experiment: mTOR target engagement assay, immunofluorescent cell-based, p4E-BP1 Thr37/46 readout (mTORC1 activity); details: Homo sapiens, PC-3, PC3 cells, compound treatment ninety minutes at 37° C.; read-out: p4E-BP1 Thr37/46 IC50
Summary of the method: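 Cell-based immunofluorescence in PC3 cells: serially diluted compounds (0.25% DMSO, 5% FBS) applied for ninety minutes at 37° C before fixation and overnight 4° C staining of p4E-BP1 Thr37/46. Untreated DMSO wells set maximal phosphorylation; IC50 obtained by logistic fitting.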

| Compound | IC50 [1] [nM] | IC50 [2] [nM] |
| --- | --- | --- |
| COCCOc1ccc(-c2ccc(-c3cnn4c(N)c(C(C)=O)c([C@@H]5C[C@H]6CC[C@@H](C5)N6C(=O)c5nnc[nH]5)nc34)cn2)cc1 [Compound 1.1.69, 1-(5-((1R,3s,5S)-8-(4H-1,2,4-triazole-3-carbonyl)-8-azabicyclo[3.2.1]octan-3-yl)-7-amino-3-(6-(4-(2-methoxyethoxy)phenyl)pyridin-3-yl)pyrazolo[1,5-a]pyrimidin-6-yl)ethanone] | 100 to 1000 | 100 to 1000 |
| CC(=O)c1c([C@@H]2C[C@H]3CC[C@@H](C2)N3C(=O)c2nnc[nH]2)nc2c(-c3ccc(-c4ccc5nn(C)cc5c4)nc3)cnn2c1N [Compound 1.1.70, 1-(5-((1R,3s,5S)-8-(4H-1,2,4-triazole-3-carbonyl)-8-azabicyclo[3.2.1]octan-3-yl)-7-amino-3-(6-(2-methyl-2H-indazol-5-yl)pyridin-3-yl)pyrazolo[1,5-a]pyrimidin-6-yl)ethanone] | 1 to 100 | 1 to 100 |
| CC(=O)c1c([C@@H]2C[C@H]3CC[C@@H](C2)N3C(=O)c2nnc[nH]2)nc2c(-c3ccc(-c4ccc5nc[nH]c5c4)nc3)cnn2c1N [Compound 1.1.71, 1-(3-(6-(1H-benzo[d]imidazol-6-yl)pyridin-3-yl)-5-((1R,3s,5S)-8-(4H-1,2,4-triazole-3-carbonyl)-8-azabicyclo[3.2.1]octan-3-yl)-7-aminopyrazolo[1,5-a]pyrimidin-6-yl)ethanone] | 100 to 1000 | 100 to 1000 |
| COc1cc(F)c(-c2ccc(-c3cnn4c(N)c(C(C)=O)c([C@@H]5C[C@H]6CC[C@@H](C5)N6C(=O)c5nnc[nH]5)nc34)cn2)cc1F [Compound 1.1.72, 1-(5-((1R,3s,5S)-8-(4H-1,2,4-triazole-3-carbonyl)-8-azabicyclo[3.2.1]octan-3-yl)-7-amino-3-(6-(2,5-difluoro-4-methoxyphenyl)pyridin-3-yl)pyrazolo[1,5-a]pyrimidin-6-yl)ethanone] | 1 to 100 | 1 to 100 |
| CCOc1ccc(-c2ccc(-c3cnn4c(N)c(C(C)=O)c([C@@H]5C[C@H]6CC[C@@H](C5)N6C(=O)c5nnc[nH]5)nc34)cn2)cc1 [Compound 1.1.73, 1-(5-((1R,3s,5S)-8-(4H-1,2,4-triazole-3-carbonyl)-8-azabicyclo[3.2.1]octan-3-yl)-7-amino-3-(6-(4-ethoxyphenyl)pyridin-3-yl)pyrazolo[1,5-a]pyrimidin-6-yl)ethanone] | 1 to 100 | 1 to 100 |
| CC(=O)c1c([C@@H]2C[C@H]3CC[C@@H](C2)N3C(=O)c2nnc[nH]2)nc2c(-c3ccc(-c4cc[nH]n4)nc3)cnn2c1N [Compound 1.1.74, 1-(3-(6-(1H-pyrazol-3-yl)pyridin-3-yl)-5-((1R,3s,5S)-8-(4H-1,2,4-triazole-3-carbonyl)-8-azabicyclo[3.2.1]octan-3-yl)-7-aminopyrazolo[1,5-a]pyrimidin-6-yl)ethanone] | 1 to 100 | 1 to 100 |
| CC(=O)c1c([C@@H]2C[C@H]3CC[C@@H](C2)N3C(=O)CO)nc2c(-c3ccc(-c4cc[nH]n4)nc3)cnn2c1N [Compound 1.1.75, 1-((1R,3s,5S)-3-(3-(6-(1H-pyrazol-3-yl)pyridin-3-yl)-6-acetyl-7-aminopyrazolo[1,5-a]pyrimidin-5-yl)-8-azabicyclo[3.2.1]octan-8-yl)-2-hydroxyethanone] | 1 to 100 | 1 to 100 |
| CC(=O)c1c([C@@H]2C[C@H]3CC[C@@H](C2)N3C(=O)c2nnc[nH]2)nc2c(-c3ccc(-c4ccncc4)nc3)cnn2c1N [Compound 1.1.76, 1-(3-(2,4′-bipyridin-5-yl)-5-((1R,3s,5S)-8-(4H-1,2,4-triazole-3-carbonyl)-8-azabicyclo[3.2.1]octan-3-yl)-7-aminopyrazolo[1,5-a]pyrimidin-6-yl)ethanone] | 100 to 1000 | 100 to 1000 |
| [2H]C([2H])([2H])Oc1ccc(-c2ccc(-c3cnn4c(N)c(C(C)=O)c([C@@H]5C[C@H]6CC[C@@H](C5)N6C(=O)c5nnc[nH]5)nc34)cn2)cc1 [Compound 1.1.77, 1-(5-((1R,3s,5S)-8-(4H-1,2,4-triazole-3-carbonyl)-8-azabicyclo[3.2.1]octan-3-yl)-7-amino-3-(6-(4-methoxy-(D3)-phenyl)pyridin-3-yl)pyrazolo[1,5-a]pyrimidin-6-yl)ethanone] | 1 to 100 | 1 to 100 |
| [2H]C([2H])([2H])Oc1ccc(-c2ccc(-c3cnn4c(N)c(C(C)=O)c([C@@H]5C[C@H]6CC[C@@H](C5)N6C(=O)CO)nc34)cn2)cc1 [Compound 1.1.78, 1-((1R,3s,5S)-3-(6-acetyl-7-amino-3-(6-(4-methoxy-(D3)-phenyl)pyridin-3-yl)pyrazolo[1,5-a]pyrimidin-5-yl)-8-azabicyclo[3.2.1]octan-8-yl)-2-hydroxyethanone] | 1 to 100 | 1 to 100 |
| CC(=O)c1c([C@@H]2C[C@H]3CC[C@@H](C2)N3C(=O)c2nnc[nH]2)nc2c(-c3ccc(C)nc3)cnn2c1N [Compound 1.1.79, 1-(5-((1R,3s,5S)-8-(4H-1,2,4-triazole-3-carbonyl)-8-azabicyclo[3.2.1]octan-3-yl)-7-amino-3-(6-methylpyridin-3-yl)pyrazolo[1,5-a]pyrimidin-6-yl)ethanone] | 1 to 100 | 1 to 100 |
| CC(=O)c1c([C@@H]2C[C@H]3CC[C@@H](C2)N3C(=O)c2nnc[nH]2)nc2c(-c3cccnc3)cnn2c1N [Compound 1.1.80, 1-(5-((1R,3s,5S)-8-(4H-1,2,4-triazole-3-carbonyl)-8-azabicyclo[3.2.1]octan-3-yl)-7-amino-3-(pyridin-3-yl)pyrazolo[1,5-a]pyrimidin-6-yl)ethanone] | 100 to 1000 | 100 to 1000 |
| [2H]C([2H])([2H])n1ccc(-c2ccc(-c3cnn4c(N)c(C(C)=O)c([C@@H]5C[C@H]6CC[C@@H](C5)N6C(=O)c5nnc[nH]5)nc34)cn2)n1 [Compound 1.1.82, 1-(5-((1R,3s,5S)-8-(4H-1,2,4-triazole-3-carbonyl)-8-azabicyclo[3.2.1]octan-3-yl)-7-amino-3-(6-(1-methyl-(D3)-1H-pyrazol-3-yl)pyridin-3-yl)pyrazolo[1,5-a]pyrimidin-6-yl)ethanone] | 100 to 1000 | 100 to 1000 |
| CCC(=O)c1ccc(-c2cnn3c(N)c(C(C)=O)c([C@@H]4C[C@H]5CC[C@@H](C4)N5C(=O)c4nnc[nH]4)nc23)cn1 [Compound 1.1.83, 1-(5-(5-((1R,3s,5S)-8-(4H-1,2,4-triazole-3-carbonyl)-8-azabicyclo[3.2.1]octan-3-yl)-6-acetyl-7-aminopyrazolo[1,5-a]pyrimidin-3-yl)pyridin-2-yl)propan-1-one] | 100 to 1000 | 100 to 1000 |
| [2H]C([2H])([2H])n1ccc(-c2ccc(-c3cnn4c(N)c(C(C)=O)c([C@@H]5C[C@H]6CC[C@@H](C5)N6C(=O)CO)nc34)cn2)n1 [Compound 1.1.84, 1-((1R,3s,5S)-3-(6-acetyl-7-amino-3-(6-(1-methyl-(D3)-1H-pyrazol-3-yl)pyridin-3-yl)pyrazolo[1,5-a]pyrimidin-5-yl)-8-azabicyclo[3.2.1]octan-8-yl)-2-hydroxyethanone] | 1 to 100 | 1 to 100 |
| CCC(O)(CC)c1ccc(-c2cnn3c(N)c(C(C)=O)c([C@@H]4C[C@H]5CC[C@@H](C4)N5C(=O)c4nnc[nH]4)nc23)cn1 [Compound 1.1.85, 1-(5-((1R,3s,5S)-8-(4H-1,2,4-triazole-3-carbonyl)-8-azabicyclo[3.2.1]octan-3-yl)-7-amino-3-(6-(3-hydroxypentan-3-yl)pyridin-3-yl)pyrazolo[1,5-a]pyrimidin-6-yl)ethanone] | 1000 to 10000 | 1000 to 10000 |
| CC(=O)c1c([C@@H]2C[C@H]3CC[C@@H](C2)N3C(=O)c2nnc[nH]2)nc2c(-c3ccc(-c4ccn(CF)n4)nc3)cnn2c1N [Compound 1.1.86, 1-(5-((1R,3s,5S)-8-(4H-1,2,4-triazole-3-carbonyl)-8-azabicyclo[3.2.1]octan-3-yl)-7-amino-3-(6-(1-(fluoromethyl)-1H-pyrazol-3-yl)pyridin-3-yl)pyrazolo[1,5-a]pyrimidin-6-yl)ethanone] | 1 to 100 | 1 to 100 |
| CC(=O)c1c([C@@H]2C[C@H]3CC[C@@H](C2)N3C(=O)CO)nc2c(-c3ccc(-c4ccn(CF)n4)nc3)cnn2c1N [Compound 1.1.87, 1-((1R,3s,5S)-3-(6-acetyl-7-amino-3-(6-(1-(fluoromethyl)-1H-pyrazol-3-yl)pyridin-3-yl)pyrazolo[1,5-a]pyrimidin-5-yl)-8-azabicyclo[3.2.1]octan-8-yl)-2-hydroxyethanone] | 1 to 100 | 1 to 100 |
| CC(=O)c1c([C@@H]2C[C@H]3CC[C@@H](C2)N3C(=O)c2nnc[nH]2)nc2c(-c3ccc(-c4ncn(C)n4)nc3)cnn2c1N [Compound 1.1.88, 1-(5-((1R,3s,5S)-8-(4H-1,2,4-triazole-3-carbonyl)-8-azabicyclo[3.2.1]octan-3-yl)-7-amino-3-(6-(1-methyl-1H-1,2,4-triazol-3-yl)pyridin-3-yl)pyrazolo[1,5-a]pyrimidin-6-yl)ethanone] | 1 to 100 | 1 to 100 |
| CC(=O)c1c([C@@H]2C[C@H]3CC[C@@H](C2)N3C(=O)CO)nc2c(-c3ccc(-c4ncn(C)n4)nc3)cnn2c1N [Compound 1.1.89, 1-((1R,3s,5S)-3-(6-acetyl-7-amino-3-(6-(1-methyl-1H-1,2,4-triazol-3-yl)pyridin-3-yl)pyrazolo[1,5-a]pyrimidin-5-yl)-8-azabicyclo[3.2.1]octan-8-yl)-2-hydroxyethanone] | 100 to 1000 | 100 to 1000 |
